Key:
Assay in all cases: relative viability (nuclei count vs DMSO), 5 days (fraction); higher = more cells survive
[1] = compound: Cn1cc(-c2cnn3c(N)c(Br)c([C@@H]4CCCNC4)nc23)cn1 + CC(=O)c1c(C)c2cnc(Nc3ccc(N4CCNCC4)cn3)nc2n(C2CCCC2)c1=O [Palbociclib] (partner 0.5 µM)
Method in brief: (§1)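 Lung cancer cell lines were seeded in 1536-well plates and dosed by pin tool the next day, with either a single drug or a fixed anchor-drug dose combined with five library-drug doses (not always all listed) spaced in √10 steps. Five days later, one step fixed the cells and stained their nuclei (final 0.05% Triton X-100, 1% formaldehyde, 1 ug/ml Hoechst), and nuclei were counted on 4× images. Relative viability is the nuclei count in treated wells divided by the count in vehicle wells, and each value is the median of duplicate plates.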

[2] = compound: Cn1cc(-c2cnn3c(N)c(Br)c([C@@H]4CCCNC4)nc23)cn1 + C[C@@H](Oc1cc(-c2cnn(C3CCNCC3)c2)cnc1N)c1c(Cl)ccc(F)c1Cl [Crizotinib] (partner 1 µM)
Method in brief: as §1

[3] = compound: Cn1cc(-c2cnn3c(N)c(Br)c([C@@H]4CCCNC4)nc23)cn1 + NC(=O)Nc1cc(-c2cccc(F)c2)sc1C(=O)N[C@H]1CCCNC1 [AZD7762] (partner 0.2 µM)
Method in brief: as §1

[4] = compound: Cn1cc(-c2cnn3c(N)c(Br)c([C@@H]4CCCNC4)nc23)cn1 + O=C(CCCCCCC(=O)Nc1ccccc1)NO [Vorinostat] (partner 1 µM)
Method in brief: as §1

201T
relative viability ([1]; first compound 0.05 µM): 0.362
relative viability ([1]; first compound 0.1581 µM): 0.373
relative viability ([1]; first compound 0.5 µM): 0.34
relative viability ([1]; first compound 1.581 µM): 0.322
relative viability ([1]; first compound 5 µM): 0.363
relative viability ([2]; first compound 0.05 µM): 1.03
relative viability ([2]; first compound 0.1581 µM): 1.03
relative viability ([2]; first compound 0.5 µM): 1.06
relative viability ([2]; first compound 1.581 µM): 1.05
relative viability ([2]; first compound 5 µM): 1.07
relative viability ([3]; first compound 0.05 µM): 0.597
relative viability ([3]; first compound 0.1581 µM): 0.618
relative viability ([3]; first compound 0.5 µM): 0.661
relative viability ([3]; first compound 1.581 µM): 0.506
relative viability ([3]; first compound 5 µM): 0.498
relative viability ([4]; first compound 0.05 µM): 0.938
relative viability ([4]; first compound 0.1581 µM): 1.05
relative viability ([4]; first compound 0.5 µM): 0.996
relative viability ([4]; first compound 1.581 µM): 0.897
relative viability ([4]; first compound 5 µM): 0.549

A549
relative viability ([2]; first compound 0.05 µM): 0.783
relative viability ([2]; first compound 0.1581 µM): 0.962
relative viability ([2]; first compound 0.5 µM): 0.778
relative viability ([2]; first compound 1.581 µM): 0.531
relative viability ([2]; first compound 5 µM): 0.492

A-427
relative viability ([1]; first compound 0.05 µM): 0.51
relative viability ([1]; first compound 0.1581 µM): 0.503
relative viability ([1]; first compound 0.5 µM): 0.508
relative viability ([1]; first compound 1.581 µM): 0.504
relative viability ([1]; first compound 5 µM): 0.411
relative viability ([2]; first compound 0.05 µM): 0.938
relative viability ([2]; first compound 0.1581 µM): 1.02
relative viability ([2]; first compound 0.5 µM): 0.922
relative viability ([2]; first compound 1.581 µM): 0.725
relative viability ([2]; first compound 5 µM): 0.566
relative viability ([3]; first compound 0.05 µM): 0.72
relative viability ([3]; first compound 0.1581 µM): 0.569
relative viability ([3]; first compound 0.5 µM): 0.566
relative viability ([3]; first compound 1.581 µM): 0.502
relative viability ([3]; first compound 5 µM): 0.344
relative viability ([4]; first compound 0.05 µM): 0.817
relative viability ([4]; first compound 0.1581 µM): 0.915
relative viability ([4]; first compound 0.5 µM): 0.843
relative viability ([4]; first compound 1.581 µM): 0.816
relative viability ([4]; first compound 5 µM): 0.406

ABC-1
relative viability ([1]; first compound 0.1581 µM): 1.06
relative viability ([1]; first compound 0.5 µM): 0.872
relative viability ([1]; first compound 1.581 µM): 0.452
relative viability ([1]; first compound 5 µM): 0.718
relative viability ([2]; first compound 0.05 µM): 1.16
relative viability ([2]; first compound 0.1581 µM): 0.935
relative viability ([2]; first compound 0.5 µM): 1.06
relative viability ([2]; first compound 1.581 µM): 0.563
relative viability ([2]; first compound 5 µM): 0.316
relative viability ([3]; first compound 0.05 µM): 0.689
relative viability ([3]; first compound 0.1581 µM): 0.984
relative viability ([3]; first compound 0.5 µM): 0.755
relative viability ([3]; first compound 1.581 µM): 0.599
relative viability ([3]; first compound 5 µM): 0.5
relative viability ([4]; first compound 0.1581 µM): 0.955
relative viability ([4]; first compound 0.5 µM): 1.04
relative viability ([4]; first compound 1.581 µM): 1.02
relative viability ([4]; first compound 5 µM): 0.356

BEN
relative viability ([1]; first compound 0.05 µM): 0.501
relative viability ([1]; first compound 0.1581 µM): 0.489
relative viability ([1]; first compound 0.5 µM): 0.497
relative viability ([1]; first compound 1.581 µM): 0.459
relative viability ([1]; first compound 5 µM): 0.53
relative viability ([2]; first compound 0.05 µM): 0.911
relative viability ([2]; first compound 0.1581 µM): 0.969
relative viability ([2]; first compound 0.5 µM): 0.861
relative viability ([2]; first compound 1.581 µM): 0.745
relative viability ([2]; first compound 5 µM): 0.608
relative viability ([3]; first compound 0.05 µM): 0.659
relative viability ([3]; first compound 0.1581 µM): 0.69
relative viability ([3]; first compound 0.5 µM): 0.688
relative viability ([3]; first compound 1.581 µM): 0.667
relative viability ([3]; first compound 5 µM): 0.533
relative viability ([4]; first compound 0.05 µM): 0.659
relative viability ([4]; first compound 0.1581 µM): 0.531
relative viability ([4]; first compound 0.5 µM): 0.558
relative viability ([4]; first compound 1.581 µM): 0.644
relative viability ([4]; first compound 5 µM): 0.508

CAL-12T
relative viability ([1]; first compound 0.05 µM): 0.505
relative viability ([1]; first compound 0.1581 µM): 0.569
relative viability ([1]; first compound 0.5 µM): 0.476
relative viability ([1]; first compound 1.581 µM): 0.189
relative viability ([1]; first compound 5 µM): 0.202
relative viability ([2]; first compound 0.05 µM): 0.612
relative viability ([2]; first compound 0.1581 µM): 0.459
relative viability ([2]; first compound 0.5 µM): 0.485
relative viability ([2]; first compound 1.581 µM): 0.321
relative viability ([2]; first compound 5 µM): 0.176
relative viability ([3]; first compound 0.05 µM): 0.541
relative viability ([3]; first compound 0.1581 µM): 0.531
relative viability ([3]; first compound 0.5 µM): 0.538
relative viability ([3]; first compound 1.581 µM): 0.494
relative viability ([3]; first compound 5 µM): 0.239
relative viability ([4]; first compound 0.05 µM): 0.848
relative viability ([4]; first compound 0.1581 µM): 0.775
relative viability ([4]; first compound 0.5 µM): 0.664
relative viability ([4]; first compound 1.581 µM): 0.56
relative viability ([4]; first compound 5 µM): 0.228

COR-L23
relative viability ([1]; first compound 0.05 µM): 0.345
relative viability ([1]; first compound 0.1581 µM): 0.346
relative viability ([1]; first compound 0.5 µM): 0.356
relative viability ([1]; first compound 1.581 µM): 0.231
relative viability ([1]; first compound 5 µM): 0.183
relative viability ([2]; first compound 0.05 µM): 0.594
relative viability ([2]; first compound 0.1581 µM): 0.809
relative viability ([2]; first compound 0.5 µM): 0.731
relative viability ([2]; first compound 1.581 µM): 0.518
relative viability ([2]; first compound 5 µM): 0.179
relative viability ([4]; first compound 0.05 µM): 0.387
relative viability ([4]; first compound 0.1581 µM): 0.273
relative viability ([4]; first compound 0.5 µM): 0.24
relative viability ([4]; first compound 1.581 µM): 0.187
relative viability ([4]; first compound 5 µM): 0.117

COR-L 105
relative viability ([1]; first compound 0.05 µM): 0.411
relative viability ([1]; first compound 0.1581 µM): 0.367
relative viability ([1]; first compound 0.5 µM): 0.385
relative viability ([1]; first compound 1.581 µM): 0.41
relative viability ([1]; first compound 5 µM): 0.386
relative viability ([2]; first compound 0.05 µM): 0.739
relative viability ([2]; first compound 0.1581 µM): 0.722
relative viability ([2]; first compound 0.5 µM): 0.713
relative viability ([2]; first compound 1.581 µM): 0.535
relative viability ([2]; first compound 5 µM): 0.462
relative viability ([4]; first compound 0.05 µM): 0.921
relative viability ([4]; first compound 0.1581 µM): 0.723
relative viability ([4]; first compound 0.5 µM): 0.756
relative viability ([4]; first compound 1.581 µM): 0.526
relative viability ([4]; first compound 5 µM): 0.616

Calu-6
relative viability ([2]; first compound 0.05 µM): 0.964
relative viability ([2]; first compound 0.1581 µM): 0.643
relative viability ([2]; first compound 0.5 µM): 0.603
relative viability ([2]; first compound 1.581 µM): 0.253
relative viability ([2]; first compound 5 µM): 0.167

ChaGo-K-1
relative viability ([1]; first compound 0.05 µM): 0.956
relative viability ([1]; first compound 0.1581 µM): 0.98
relative viability ([1]; first compound 0.5 µM): 0.911
relative viability ([1]; first compound 1.581 µM): 0.869
relative viability ([1]; first compound 5 µM): 0.97
relative viability ([2]; first compound 0.05 µM): 1.15
relative viability ([2]; first compound 0.1581 µM): 1.36
relative viability ([2]; first compound 0.5 µM): 1.24
relative viability ([2]; first compound 1.581 µM): 0.92
relative viability ([2]; first compound 5 µM): 1.05
relative viability ([3]; first compound 0.05 µM): 0.843
relative viability ([3]; first compound 0.1581 µM): 0.801
relative viability ([3]; first compound 0.5 µM): 0.866
relative viability ([3]; first compound 1.581 µM): 0.761
relative viability ([3]; first compound 5 µM): 0.755
relative viability ([4]; first compound 0.05 µM): 0.736
relative viability ([4]; first compound 0.1581 µM): 0.785
relative viability ([4]; first compound 0.5 µM): 0.779
relative viability ([4]; first compound 1.581 µM): 0.687
relative viability ([4]; first compound 5 µM): 0.753

EBC-1
relative viability ([2]; first compound 0.05 µM): 0.179
relative viability ([2]; first compound 0.1581 µM): 0.179
relative viability ([2]; first compound 0.5 µM): 0.186
relative viability ([2]; first compound 1.581 µM): 0.174
relative viability ([2]; first compound 5 µM): 0.17

— the supplement of paper PMC10307832
